According to US11840686B2, “Modulation of prekallikrein (PKK) expression” (Ionis Pharmaceuticals, Inc., priority 2013, dated 2023):
Strand notation (5' to 3'): a small letter for the sugar, then the base; units joined by * are phosphorothioate-linked, units joined directly phosphodiester-linked; [ ] holds rarer units or linkages, { } end groups; capitals alone tell only the bases. e = 2'-O-(2-methoxyethyl) (MOE); k = constrained ethyl (cEt); [5mC] = 5-methylcytosine; d = 2'-deoxy (DNA)

Columns and labels:
human PKK mRNA [1] = assay: Dose-dependent antisense inhibition of human PKK in HepaRG cells, 0.11-3.00 uM (Example 6); assay type: cell-based; details: for IC50: 0.11-3.00 μM; for percent inhibition of PKK mRNA, 0.11 μM / percent inhibition of PKK mRNA, 0.33 μM / percent inhibition of PKK mRNA, 1.00 μM / percent inhibition of PKK mRNA, 3.00 μM: electroporation, approx. 16 hours, relative to untreated control cells
Procedure: Cells were plated at a density of 20,000 cells per well and transfected using electroporation with 0.11 μM, 0.33 μM, 1.00 μM, and 3.00 μM concentrations of antisense oligonucleotide. After a treatment period of approximately 16 hours, RNA was isolated from the cells and PKK mRNA levels were measured by quantitative real-time PCR. Human PKK primer probe set RTS3454 was used to measure mRNA levels. PKK mRNA levels were adjusted according to total RNA content, as measured by RIBOGREEN®. The antisense oligonucleotides were tested in a series of experiments that had similar culture conditions.
The half maximal inhibitory concentration (IC50) of each oligonucleotide is also presented.

human PKK mRNA [2] = assay: Antisense inhibition of human PKK mRNA in HepaRG cells, 1,000 nM, MOE/deoxy/cEt oligonucleotides (Example 3); assay type: cell-based; details: HepaRG cells, electroporation with 1,000 nM antisense oligonucleotide
How it was run: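 HepaRG cells at 20,000 per well electroporated with 1,000 nM 16-mer MOE/cEt/deoxy gapmers (phosphorothioate, 5-methylcytosine). After about 24 h, PKK mRNA measured by qRT-PCR with primer probe set RTS3454, normalized to RIBOGREEN total RNA. Reported as percent inhibition versus untreated cells.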

[3] = approximately 24 hours, primer probe set RTS3454, relative to untreated control cells, experiment of Table 24
[4] = Table 19, approximately 24 hours, PKK mRNA by RT-PCR (RTS3454), relative to untreated control cells
[5] = approx. 24 hours, PKK mRNA by RT-PCR (RTS3454), relative to untreated control cells, Table 25 experiment
[6] = approx. 24 hours, PKK mRNA by RT-PCR (RTS3454), relative to untreated control cells, Table 26 experiment

Substance | IC50 (human PKK mRNA [1]) | percent inhibition of PKK mRNA, 0.11 μM (human PKK mRNA [1]) | percent inhibition of PKK mRNA, 0.33 μM (human PKK mRNA [1]) | percent inhibition of PKK mRNA, 1.00 μM (human PKK mRNA [1]) | % inhibition (human PKK mRNA [2]; [3]) | percent inhibition of PKK mRNA, 3.00 μM (human PKK mRNA [1]) | % inhibition (human PKK mRNA [2]; [4]) | % inhibition (human PKK mRNA [2]; [5]) | % inhibition (human PKK mRNA [2]; [6])
548061 (eG*e[5mC]*kT*dT*dG*dT*dG*dT*d[5mC]*dA*d[5mC]*d[5mC]*dT*kT*kT*eG; antisense) [compound 548061] | 400 nM | 26% | 61% | 59% | 86% | – | – | – | –
548069 (e[5mC]*e[5mC]*kA*dA*d[5mC]*dA*dG*dT*dT*dG*dG*dT*dA*kT*kA*eA; antisense) [compound 548069] | 1900 nM | 6% | 0% | 27% | 57% | 66% | – | – | –
548070 (e[5mC]*e[5mC]*k[5mC]*dA*dA*d[5mC]*dA*dG*dT*dT*dG*dG*dT*kA*kT*eA; antisense) [compound 548070] | 1100 nM | 26% | 35% | 48% | 85% | 63% | – | – | –
548106 (antisense e[5mC]*e[5mC]*kA*dT*dG*dT*dA*d[5mC]*dT*d[5mC]*dA*dG*d[5mC]*kG*kA*e[5mC]) [compound 548106] | – | 53% | 54% | 82% | – | 94% | 79% | – | –
548109 (antisense eG*e[5mC]*kA*dT*d[5mC]*dT*dG*dA*dG*d[5mC]*dT*dT*dT*kT*k[5mC]*e[5mC]) [compound 548109] | – | 50% | 92% | 79% | – | 85% | 77% | – | –
548125 (antisense e[5mC]*eT*kA*dG*dA*d[5mC]*dT*d[5mC]*dT*dG*dG*dA*d[5mC]*kT*kG*e[5mC]) [compound 548125] | 300 nM | 33% | 50% | 81% | – | 73% | 89% | – | –
548128 (eA*eT*kT*dG*d[5mC]*d[5mC]*dT*dA*dG*dA*d[5mC]*dT*d[5mC]*kT*kG*eG; antisense) [compound 548128] | 1100 nM | 14% | 29% | 49% | – | 66% | 55% | – | –
548147 (e[5mC]*eG*kT*d[5mC]*d[5mC]*dT*dT*dA*dG*dG*dA*dT*dG*k[5mC]*kA*eA; antisense) [compound 548147] | – | 59% | 94% | 80% | – | – | 81% | – | –
548155 (e[5mC]*eG*kT*dG*d[5mC]*dT*dG*dA*dA*dA*dG*d[5mC]*dG*kG*kG*e[5mC]; antisense) [compound 548155] | 300 nM | 49% | 50% | 70% | – | 81% | – | 76% | –
548170 (eA*eG*kT*dT*dG*d[5mC]*dG*dA*d[5mC]*d[5mC]*dT*d[5mC]*dG*k[5mC]*kA*eT; antisense) [compound 548170] | 2000 nM | 0% | 8% | 26% | – | 65% | – | 68% | –
548174 (eT*e[5mC]*kT*d[5mC]*dA*dG*dT*dT*dG*d[5mC]*dG*dA*d[5mC]*k[5mC]*kT*e[5mC]; antisense) [compound 548174] | 2000 nM | 20% | 18% | 29% | – | 62% | – | 68% | –
548180 (eT*e[5mC]*kA*dT*dG*dG*dA*dG*dA*dT*d[5mC]*dT*d[5mC]*kA*kG*eT; antisense) [compound 548180] | 400 nM | 11% | 59% | 71% | – | 88% | – | 79% | –
548195 (eT*eT*k[5mC]*dT*dG*d[5mC]*d[5mC]*dA*dA*d[5mC]*dA*dG*dT*kT*kT*e[5mC]; antisense) [compound 548195] | 800 nM | 5% | 23% | 61% | – | 76% | – | 84% | –
548197 (eT*eG*k[5mC]*dT*dT*dG*dG*d[5mC]*dT*dT*d[5mC]*dA*dA*kT*kA*eT; antisense) [compound 548197] | 800 nM | 33% | 37% | 51% | – | 75% | – | 68% | –
548201 (eT*eG*kT*dT*d[5mC]*dT*dA*dA*dT*dG*dT*dG*dG*k[5mC]*kA*e[5mC]; antisense) [compound 548201] | 800 nM | 0% | 7% | 70% | – | 85% | – | 67% | –
548217 (e[5mC]*eT*kG*dT*dG*d[5mC]*dA*dT*dA*dG*dA*d[5mC]*d[5mC]*k[5mC]*k[5mC]*eA; antisense) [compound 548217] | 900 nM | 22% | 24% | 54% | – | 71% | – | 69% | –
548220 (eG*e[5mC]*kA*dG*dA*dA*dA*dT*d[5mC]*d[5mC]*dT*dG*dT*kG*k[5mC]*eA; antisense) [compound 548220] | > 3000 nM | 0% | 0% | 0% | – | 6% | – | 69% | –
548247 (antisense e[5mC]*eG*kA*dT*dT*dT*dT*d[5mC]*d[5mC]*dA*dT*dG*d[5mC]*kA*kT*eA) [compound 548247] | 500 nM | 16% | 50% | 62% | – | 82% | – | – | 56%
548265 (antisense e[5mC]*e[5mC]*kT*d[5mC]*dT*dT*dG*dA*dT*dT*dT*dG*dG*kG*k[5mC]*eA) [compound 548265] | – | 47% | 69% | 78% | – | 67% | – | – | 85%
548278 (antisense eG*eG*kT*dT*d[5mC]*d[5mC]*d[5mC]*dT*dA*dG*d[5mC]*dG*dG*kT*k[5mC]*e[5mC]) [compound 548278] | 400 nM | 3% | 59% | 78% | – | 93% | – | – | 74%
